pKi: −log10 of the molar value. Values belong to the compound of their own block, whether it stands above or below them. Active and inactive are the calls of the source. The calls are words filed in the database; no cut-off is given here.
Legend:
[1] = molecular target: T1, Protein-serine/threonine kinase (Sus scrofa) (UniProt F1RUX3); assay: Inhibition of GRK2 in porcine trabecular meshwork cells assessed as F-actin depolymerization at 50 uM after 20 mins by Alexa-fluor 488-labelled phalloidin/DAPI staining assay relative to control
T1 sequence (whole entry): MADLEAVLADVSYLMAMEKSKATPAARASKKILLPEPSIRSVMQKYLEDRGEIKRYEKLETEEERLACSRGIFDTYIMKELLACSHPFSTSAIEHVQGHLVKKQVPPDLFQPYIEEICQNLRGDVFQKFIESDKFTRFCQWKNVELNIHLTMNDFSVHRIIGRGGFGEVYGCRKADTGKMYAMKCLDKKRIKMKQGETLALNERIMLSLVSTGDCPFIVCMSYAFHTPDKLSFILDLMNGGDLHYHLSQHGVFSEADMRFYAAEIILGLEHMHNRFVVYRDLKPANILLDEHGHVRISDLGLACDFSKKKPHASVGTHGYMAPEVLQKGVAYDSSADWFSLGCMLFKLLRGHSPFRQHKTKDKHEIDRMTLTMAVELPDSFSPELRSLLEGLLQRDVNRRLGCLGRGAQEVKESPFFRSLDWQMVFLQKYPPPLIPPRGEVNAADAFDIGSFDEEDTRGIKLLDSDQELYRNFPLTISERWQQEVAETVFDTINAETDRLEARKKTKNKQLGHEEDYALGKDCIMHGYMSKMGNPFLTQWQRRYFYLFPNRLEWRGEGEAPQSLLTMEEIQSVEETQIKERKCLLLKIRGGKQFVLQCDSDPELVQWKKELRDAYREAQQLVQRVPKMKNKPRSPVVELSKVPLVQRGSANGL

[2] = molecular target: G protein-coupled receptor kinase 6 (Homo sapiens, UniProt P43250); assay: Inhibition of GRK6 (unknown origin) after 90 to 120 mins by Kinase-Glo assay
[3] = molecular target: T2, Beta-adrenergic receptor kinase 1 (Homo sapiens) (UniProt P25098); assay: Inhibition of GRK2 in HEK293 cells overexpressing beta 2 adrenergic receptor assessed as increase in c-AMP accumulation in presence of isoproterenol; assay type: cell-based
T2 sequence (whole entry): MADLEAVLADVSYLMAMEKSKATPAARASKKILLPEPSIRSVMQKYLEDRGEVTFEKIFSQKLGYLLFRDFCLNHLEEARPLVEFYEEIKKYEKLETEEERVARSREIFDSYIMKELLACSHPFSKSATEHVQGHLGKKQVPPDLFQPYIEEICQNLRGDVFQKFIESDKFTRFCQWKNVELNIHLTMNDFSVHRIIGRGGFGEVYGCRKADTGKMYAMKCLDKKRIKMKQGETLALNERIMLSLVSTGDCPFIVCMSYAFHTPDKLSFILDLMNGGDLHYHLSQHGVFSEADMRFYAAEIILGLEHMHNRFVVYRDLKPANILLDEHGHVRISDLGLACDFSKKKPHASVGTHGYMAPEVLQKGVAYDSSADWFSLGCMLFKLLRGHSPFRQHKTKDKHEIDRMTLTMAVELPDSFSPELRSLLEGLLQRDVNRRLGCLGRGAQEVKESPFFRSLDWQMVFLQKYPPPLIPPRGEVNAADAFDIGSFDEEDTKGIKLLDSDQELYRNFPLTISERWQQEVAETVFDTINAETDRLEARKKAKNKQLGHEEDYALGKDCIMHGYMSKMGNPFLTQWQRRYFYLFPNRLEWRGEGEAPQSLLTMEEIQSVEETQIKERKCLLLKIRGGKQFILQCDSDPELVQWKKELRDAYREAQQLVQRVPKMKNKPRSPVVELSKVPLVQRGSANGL

[4] = system: Felis catus; assay: Antiglaucoma activity in cat assessed as decrease of redness administered topically; assay type: functional, organism-based
[5] = system: Felis catus; assay: Antiglaucoma activity in cat assessed as decrease of ocular irritation administered topically; assay type: functional, organism-based; settings: Eye
[6] = system: Felis catus; assay: Antiglaucoma activity in cat assessed as decrease of hyperemia administered topically; assay type: functional, organism-based
[7] = molecular target: G protein-coupled receptor kinase 5 (Homo sapiens, UniProt P34947); assay: Inhibition of GRK5 (unknown origin) after 90 to 120 mins by Kinase-Glo assay
[8] = system: Felis catus; assay: Antiglaucoma activity in cat assessed as decrease of allergic symptoms administered topically twice per day on eye; assay type: functional, organism-based
[9] = system: Felis catus; assay: Antiglaucoma activity in cat assessed as decrease of dry eye syndrome administered topically twice per day on eye; assay type: functional, organism-based
[10] = system: Felis catus; assay: Antiglaucoma activity in cat assessed as decrease in intraocular pressure administered topically 4 times per day on eye measured after 1 to 23 hrs by pneumatonometer; assay type: functional, organism-based
[11] = system: Felis catus; assay: Antiglaucoma activity in cat assessed as decrease in intraocular pressure administered topically twice per day on eye measured after 1 to 23 hrs by pneumatonometer; assay type: functional, organism-based
[12] = molecular target: T3, Beta-adrenergic receptor kinase 1 (Homo sapiens, UniProt P25098); assay: Inhibition of human GRK2 after 90 to 120 mins by Kinase-Glo assay
T3 sequence (P25098 whole entry): T2 sequence (whole entry)

Chain of G protein-coupled receptor kinase 6 (P43250 whole entry): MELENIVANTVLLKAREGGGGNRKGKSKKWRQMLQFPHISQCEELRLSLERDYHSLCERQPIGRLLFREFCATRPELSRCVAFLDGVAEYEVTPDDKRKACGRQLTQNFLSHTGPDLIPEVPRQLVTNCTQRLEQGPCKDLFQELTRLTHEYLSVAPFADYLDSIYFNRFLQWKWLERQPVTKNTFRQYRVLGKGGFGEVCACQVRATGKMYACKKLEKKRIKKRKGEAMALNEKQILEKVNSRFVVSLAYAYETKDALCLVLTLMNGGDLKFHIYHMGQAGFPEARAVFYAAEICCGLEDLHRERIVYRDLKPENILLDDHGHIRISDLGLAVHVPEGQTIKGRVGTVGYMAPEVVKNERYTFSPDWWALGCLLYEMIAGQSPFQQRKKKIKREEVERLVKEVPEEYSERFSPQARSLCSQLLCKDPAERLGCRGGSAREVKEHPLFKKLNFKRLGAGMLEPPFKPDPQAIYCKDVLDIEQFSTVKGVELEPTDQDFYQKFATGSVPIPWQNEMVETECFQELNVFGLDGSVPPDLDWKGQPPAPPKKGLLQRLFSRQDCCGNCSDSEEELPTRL
Chain of G protein-coupled receptor kinase 5 (P34947 whole entry): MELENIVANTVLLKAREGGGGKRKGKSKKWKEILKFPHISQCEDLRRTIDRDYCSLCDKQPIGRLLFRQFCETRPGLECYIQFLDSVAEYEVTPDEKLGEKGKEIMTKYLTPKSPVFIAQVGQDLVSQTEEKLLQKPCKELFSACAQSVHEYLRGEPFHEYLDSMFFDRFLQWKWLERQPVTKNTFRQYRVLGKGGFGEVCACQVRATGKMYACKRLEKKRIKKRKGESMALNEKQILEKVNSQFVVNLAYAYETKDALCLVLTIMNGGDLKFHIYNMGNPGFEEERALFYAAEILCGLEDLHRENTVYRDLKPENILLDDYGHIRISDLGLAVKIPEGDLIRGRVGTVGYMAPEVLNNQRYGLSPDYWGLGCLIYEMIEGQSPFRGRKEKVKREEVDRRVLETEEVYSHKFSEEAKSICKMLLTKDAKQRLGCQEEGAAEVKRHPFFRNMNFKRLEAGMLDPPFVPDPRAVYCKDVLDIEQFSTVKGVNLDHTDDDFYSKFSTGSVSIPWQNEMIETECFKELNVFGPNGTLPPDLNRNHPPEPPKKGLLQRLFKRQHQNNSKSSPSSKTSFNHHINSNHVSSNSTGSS

SMILES: O=C(CNc1cccc(C(=O)Nc2ccccc2)c1)N/N=C/c1c(Cl)cncc1Cl
GRK2 inhibition activity call (active/not active) [1]: Active | pKi [2]: < 5.00

SMILES: CNC(=O)c1cccc(NCC(=O)N/N=C/c2c(Cl)cncc2Cl)c1
GRK2 inhibition activity call (active/not active) [1]: inactive

SMILES: Cc1ccc(Oc2cccc(NCC(=O)N/N=C/c3ccncc3)c2)cc1
Activity [8]: Active | Activity [9]: Active

SMILES: O=C(CNc1ccc(Oc2ccccc2)cc1)N/N=C/c1c(Cl)cncc1Cl
GRK2 inhibition activity call (active/not active) [1]: inactive

SMILES: O=C(CNc1cccc(C(=O)NCCN2CCOCC2)c1)N/N=C/c1ccncc1
Activity [10]: Active

SMILES: NC(=O)c1ccc(NCC(=O)N/N=C/c2c(Cl)cncc2Cl)cc1
Activity [11]: Active

SMILES: C/C(=N\NC(=O)CNc1cccc(C(=O)Nc2ccccc2)c1)c1ccncc1
GRK2 inhibition activity call (active/not active) [1]: inactive

SMILES: O=C(CNc1cccc(C(=O)NCCN2CCOCC2)c1)N/N=C/c1c(Cl)cncc1Cl
GRK2 inhibition activity call (active/not active) [1]: inactive

SMILES: COc1cc(/C=N/NC(=O)CNc2cccc(Cl)c2)nc(OC)n1
GRK2 inhibition activity call (active/not active) [1]: inactive

SMILES: CCc1cccc(NCC(=O)N/N=C/c2c(Cl)cncc2Cl)c1
pKi [12]: < 5.00

The next lines start with results.

GRK2 inhibition activity call (active/not active) [1]: Active
SMILES: O=C(CNc1cccc(C(=O)Nc2cccnc2)c1)N/N=C/c1ccncc1

inhibition [3]: Active
SMILES: NC(=O)c1cccc(NCC(=O)N/N=C/c2ccncc2)c1
Activity [4]: Active | Activity [5]: Active | Activity [6]: Active

GRK2 inhibition activity call (active/not active) [1]: Active | pKi [7]: < 5.00
SMILES: O=C(CNc1cccc(C(=O)Nc2ccccc2)c1)N/N=C/c1ccncc1

GRK2 inhibition activity call (active/not active) [1]: inactive
SMILES: COc1ccc(Oc2cccc(NCC(=O)NN=Cc3ccncc3)c2)cc1 (mixture of isomers)

pKi [2]: < 5.00
SMILES: O=C(CNc1cccc(OCc2ccccc2)c1)N/N=C/c1ccncc1
